# Reference: a melting point compilation (Tetko et al.; mined from patent text by program, amines drawn as free bases though some values may be those of a salt)
row,Structure (SMILES),melting point
1,Cc1c(-c2ccccc2)n(-c2cccc(S(C)(=O)=O)c2)c(-c2ccccc2)cc1=O,246 to 248 °C
2,OCc1ccc(Nc2ccccc2)nc1,119 to 122 °C
3,O=C(O)c1c(Cl)cc(N2C(=O)N3CCCC3(Cc3ccc(Br)cc3)C2=O)cc1Cl (configuration not stated),152 °C
4,COC(=O)c1ccc(I)nc1,134 to 135 °C
5,CCCn1nnn(-c2cc(OC(C)C)c(F)cc2F)c1=O,76.5 to 77 °C
6,O=C1c2cc(Cl)ccc2CN2CCC(=NO)C12 (configuration not stated),130 to 136 °C
7,O=C(O)Cc1cnn(-c2ccc(Cl)cc2)c1-c1ccccc1,110 to 111 °C
8,Cn1c2ccc(Cl)cc2c2c3ccccc3c(OCCN3CCOCC3)nc21,140 to 142 °C
9,COC(=O)CC(Nc1ccccc1)c1ccccc1 (configuration not stated),110 °C
10,COc1ccc(C(=O)CCC(=O)N[C@@H](C)C(=O)O)cc1F,126 to 128 °C
11,COc1ccccc1-c1nc2nc(SC)nnc2c(=O)[nH]1,268 °C
12,Cn1nnc2c(N3CCOCC3)nc(-c3ccc(NC(=O)Nc4cccs4)cc3)nc21,182 °C
13,COc1cccc2cc(CNCCNC(=O)C34CCC(CC3=O)C4(C)C)oc12 (configuration not stated),177 to 178 °C
14,CCOC(=O)C1=C(C)NC(C)=C(C(=O)OCC)C1c1csc2ccc(Br)cc12,68 to 70 °C
15,CN(C(=O)c1ccc(N)cc1)c1ccccc1N,159 to 160 °C
16,COc1ccc2ccc(N3C(=O)c4ccccc4C3CC(CCC(C)C)=NO)nc2n1 (configuration not stated),200 °C
17,CCc1c(-c2ccc(OCc3ccccc3)cc2)c2c(C(=O)OC)c(C(=O)OC)c3c(OCc4ccccc4)ccc1n32,115 to 120 °C
18,CCCCc1nc(Cl)c(C=O)n1Cc1ccc([N+](=O)[O-])cc1,88 to 89 °C
19,COc1ccccc1OC1CCN(c2nc(-c3ccccc3)nc3ccccc23)C1 (configuration not stated),142 to 144 °C
20,CCOC(=O)c1c(CN(CC)CC)nc2sc(C)c(C)c2c1-c1ccc(Cl)cc1,98 to 100 °C
21,CCCOc1ccnc(CS(=O)c2nc3ccccc3[nH]2)c1C (configuration not stated),81 to 83 °C
22,COc1ccc([C@@H]2Sc3cc(Oc4ccc(F)cc4)ccc3NC(=O)[C@@H]2O)cc1,198 to 200 °C
23,CCOC(=O)Nc1cc(-c2cccc3ccccc23)c2nc(C(=O)O)ccc2c1,205 to 208 °C
24,CC(C)(C)OC(=O)NCCOc1noc2cccc(C#N)c12,116 to 117 °C
25,N[C@H]1CC[C@H](Nc2cc(C(F)(F)F)nc3c(C(F)(F)F)cccc23)CC1,173 °C
26,CN1CC(CCCl)Oc2ccc(Cl)cc2C1=O (configuration not stated),101 to 103 °C

row,Structure (SMILES),melting point
1,COc1ccc(CCn2ccc3ccc(-c4cccc(C(=O)NCCC#N)c4)nc32)cc1OC,138 to 139 °C
2,Nc1nc(C#Cc2ccccc2)nc2nc(-c3ccco3)nn12,> 280 °C
3,CC1=NN=C(c2ccc(NC=O)cc2)c2cc3c(cc2C1)OCO3,152 to 154 °C
4,COC(=O)C1CCCc2c(-c3ccc(Cl)cc3)nsc2C1 (configuration not stated),108 to 109 °C
5,Cn1c(C(F)(F)F)cc(=O)n(-c2ccc3snc(C(Cl)Cl)c3c2)c1=O,148 to 149 °C
6,CC(C)(CN)c1ccc(-n2c(-c3cc(-c4cnc5ccccc5c4)ccn3)c[nH]c2=O)cc1,244 to 247 °C
7,CC(O)=C(C#N)C(=O)Nc1ccc(C(F)(F)F)cc1,230 to 233 °C
8,NC(=O)N1CCC(Oc2c(F)c(F)c(F)c(F)c2F)CC1,170 to 172 °C
9,CC(=O)OCC1OC(n2cc(S)c(=O)[nH]c2=O)CC1(O)C(C)=O (configuration not stated),159 to 163 °C
10,CS(=O)(=O)Nc1ccc2c(c1)C(=O)C(Br)CC2 (configuration not stated),87 to 92 °C
11,CCOC(=O)C1CCN(CC2(C)Cc3c(C)c(N)c(C)c(C)c3O2)CC1 (configuration not stated),74 to 76 °C
12,CCNc1ncnc2nc(-c3ccncc3)[nH]c12,308 to 310 °C
13,Nc1c(-c2ccc(-c3nnco3)cc2)nnn1-c1ccc(C(F)(F)F)cc1F,185 to 186 °C
14,O=S(=O)(c1cc(Br)[nH]c1-c1ccc(Cl)cc1)C(F)(F)F,73 to 76 °C
15,CN1C(=O)Cn2c(C(=O)N3CCOCC3)nnc2-c2cc(Cl)ccc21,200 to 201 °C
16,CCOC(=O)N1CCn2c(nc(-c3ccncn3)cc2=O)C(CC)C1 (racemic),160 to 162 °C
17,CS(=O)(=O)Nc1c(O)ccc2c1CCCC2C1=NCCN1 (configuration not stated),263 to 265 °C
18,CN1C(=O)CN=C(c2ccccc2Cl)c2cccn21,132 to 134 °C
19,Nc1cc(F)c2[nH]nc(NC(=O)c3ccccc3)c2c1,208 °C
20,O[C@@H]1CCC[C@H]1Nc1ccc(Cl)c(Cl)c1 (relative stereo),167 to 168 °C
21,CC(C)/[N+]([O-])=C/c1ccccc1O,36 to 39 °C
22,Cc1cccc(Cl)c1CO,83 to 86 °C
23,Cc1cc(-c2ccc(OC(F)(F)F)cc2)cc(-c2cccc(-c3cccc(S(=O)(=O)NC(C)(C)C)c3)n2)n1,148 °C
24,OC1CSC(Oc2cc(-c3ccc(F)nc3)ccc2Cl)C(O)C1O (configuration not stated),185 °C
25,COc1ccc2c(-c3sccc3C)noc2c1Cl,154 to 156 °C
26,CCN1C(=O)CCC(C)(C)c2ccc(Nc3ncc(Cl)c(Nc4c(F)cccc4OCC#N)n3)cc21,235 to 238 °C

row,Structure (SMILES),melting point
1,CC(NC(=O)C(NC(=O)OCC1c2ccccc2-c2ccccc21)C(Cc1ccccc1)C(=O)O)C(=O)O (configuration not stated),114 to 116 °C
2,COc1ccc(N2C(=O)[C@@H](NC(=O)Cc3ccccc3)[C@H]2C=CC(=O)[C@@H]2CCCO2)cc1,159 to 162 °C
3,CC(C)(C)OC(=O)N1CCC[C@H]1c1nc2c(C(F)(F)F)cccc2c(O)c1C(=O)Nc1nccs1,215 °C
4,COc1c(C(=O)O)[nH]c2cccc(C)c12,136 °C
5,COc1ccc(C(O)C(F)(F)C(=O)SC(C)(C)C)cc1 (configuration not stated),73 to 75 °C
6,N#Cc1ccc(OCCCCCI)cc1,51 to 54 °C
7,CC(=NOCCOc1ccc(CC2SC(=O)NC2=O)cc1)c1ccc(-c2ccc3c(c2)OCO3)cc1 (configuration not stated),137 to 139 °C
8,CCC(=O)c1ccc(OC(C)c2ccc(Cl)cc2)cc1 (configuration not stated),70 to 71 °C
9,Cn1c(-c2ccc(-n3ccnc3)cc2)cnc1[C@H](Cc1ccccn1)N(C=O)c1cc2ccc(Cl)cc2o1,165 to 169 °C
10,CCCC(=O)C(=CNc1ccccc1F)C(=O)OCC,60 to 62 °C
11,[O-][N+]1=C(c2ccccc2F)c2cc(Cl)ccc2-n2cnc(N3CCOCC3)c2C1,200 to 203 °C
12,CC(=O)NCc1ccc(CN2CCN(c3nc(Cl)cc(Cl)n3)CC2)cc1,139 to 140 °C
13,O=C(O)CCC/C=C/c1nn(-c2ccc([N+](=O)[O-])cc2)c2c1CCC2,163 to 164 °C
14,O=C(O)c1cn(C2CC2)c2c(C(F)(F)F)c(F)c(F)cc2c1=O,159 to 162 °C
15,Nc1nnc(C(CCc2ccccc2)NC(=O)c2ccc3[nH]c(-c4ccncc4)nc3c2)o1 (configuration not stated),160 °C
16,CCNc1cccc2c(S(=O)(=O)Nc3cnc(Br)cn3)cccc12,220 to 222 °C
17,O=c1nc(-c2c[nH]c3ccccc23)sc2ccccc12,276 to 277 °C
18,Cc1ccc(C2C(=O)CCC2=O)c(C)c1,198 to 200 °C
19,Cc1ccc(-c2nc(C(F)(F)F)cn2-c2ccc(S(C)(=O)=O)cc2)nc1,196 °C
20,CC(C)(C)c1cc(CCc2ccc(NC(=O)NC3CCN(Cc4ccccc4)CC3)cc2)cc(C(C)(C)C)c1O,195 to 197 °C
21,O=C(Nc1ccccc1)N1CC2CCC(C1)O2,184 to 186 °C
22,Cc1cn2c(=O)c(C(=O)O)cnc2c2cc(N)ccc12,> 300 °C
23,CCOC=Nn1c(NC)n[nH]c1=O,169 °C
24,CCOc1nn(CCO)cc1C(=O)NCc1ccc(Cl)cc1Cl,152 to 153 °C
25,CCCC1CC(O)c2cc(S(N)(=O)=O)sc2S1 (configuration not stated),156 to 157 °C
26,COc1cc(-c2nc3ccc(OCCN4CCCCC4)cc3n2Cc2ccccc2C(F)(F)F)cc(OC)c1OC,167 °C

row,Structure (SMILES),melting point
1,CCCCN1C(=O)CC(Sc2cc(C(C)(C)C)c(O)c(C(C)(C)C)c2)C1=O (configuration not stated),80 to 85 °C
2,CC(C)NC(=O)c1nc(-c2ccc(F)cc2)c(-c2ccc(=O)n(C(C)C)n2)s1,122 to 124 °C
3,O=C(NC1CCCCC1)C(Br)c1ccccc1 (configuration not stated),126 to 127 °C
4,Cc1ccc(-c2ccc(CO)cc2)cc1,128 to 131 °C
5,ClC(Cl)(Cl)C1OCc2ccccc2O1 (configuration not stated),167 to 169 °C
6,CCOC(=O)c1csnc1-c1cccc([N+](=O)[O-])c1,132 to 136 °C
7,N#Cc1cnn2c(-c3cccnc3)ccnc12,258 to 260 °C
8,O=C(NC1CCC(c2cc(Nc3cccc(C(F)(F)F)c3)n[nH]2)C1)c1ccccn1 (configuration not stated),162 °C
9,CCCCCCCCC(=O)Nc1cc([N+](=O)[O-])ccc1O,140 to 141 °C
10,O=S(=O)(c1ccc(-c2ccc(C(O)CCl)cc2)cc1)C(F)F (configuration not stated),104 to 107 °C
11,CC1OC(n2c(Cl)nc3cc(Cl)c(Cl)cc32)C(O)C1O (configuration not stated),85 to 86 °C
12,Nc1c(OCCCl)cc(Cl)cc1[N+](=O)[O-],109 to 110 °C
13,COc1ccc(/C=C(\C#N)c2cccnc2)cc1OC1CCCC1,86.5 to 87.5 °C
14,Cc1oc(-c2ccccc2)nc1COc1ccc(CO)cc1,128 to 129 °C
15,N#Cc1ccc2nc3c(c(=O)n2c1)CSC3,256 to 257 °C
16,CCCCCCCCCCCCCCCCOC(=O)c1cnccn1,53 to 54 °C
17,Cn1c(=O)sc2cc(N)ccc21,188 to 190 °C
18,Cc1ccc(-n2c(=O)n(OCc3ccccc3)c(=O)c3cc(F)c(N4CCCC4)nc32)cc1,192 to 194 °C
19,CS(=O)(=O)c1ccc(-c2cnn(CC(F)(F)F)c(=O)c2Cc2ccccc2)cc1,112 to 114 °C
20,CC1(C)COc2ccc(S(=O)(=O)n3c(Cc4ccccc4C(=O)O)cc4cc(Cl)ccc43)cc21,190 °C
21,CCOC(=O)C=Cc1cc(OC)c(OC)c(OC)c1,63.4 °C
22,CN(C)c1ccc(-n2c(CC(=O)O)c(C(=O)O)c3cc(Oc4ccc(C(F)(F)F)cc4)ccc32)cc1,235 to 237 °C
23,Cn1c(=O)c(-c2ccccc2Cl)cc2cnc(NC3CCS(=O)(=O)CC3)nc21,206 to 207 °C
24,CC(O)(C=Cc1ccc(S(=O)(=O)c2ccccc2)cc1)C(F)(F)F (configuration not stated),94 to 97 °C
